Laboratory results: patent publication US8877707B2, “Inhibitors of HCV NS5A” (Presidio Pharmaceuticals, Inc., priority 2010, dated 2014)

Tested on: HCV genotype 1b replicon in Huh 7 cells
Experiment: HCV replicon assay (1b_Huh-Luc/Neo-ET cell line, luciferase readout)
Type: cell-based
Details: Hepatitis C virus, Huh-7; HCV 1b replicon; read-out: Inhibition of HCV genotype 1b
In short: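 Replicon level was read as luciferase signal after 72 h compound exposure, triplicate wells, starting the day after cells were plated. Cell line: 1b_Huh-Luc/Neo-ET. Values normalised to control as percent, and EC50 fitted with a variable-slope sigmoid; determinations repeated.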

Compound | EC50
COC(=O)N[C@H](C(=O)N1CCC[C@H]1c1nc2ccc(-c3ccc4cc(-c5cnc([C@@H]6CCCN6C(=O)[C@@H](NC(=O)OC)[C@@H](C)OC)[nH]5)ccc4c3)nc2[nH]1)C1CCCC1 [compound 533] | < 1 nM
CC[C@H](C)[C@H](NC(=O)OC)C(=O)N1CCC[C@H]1c1nc2ccc(-c3ccc4cc(-c5cnc([C@@H]6CCCN6C(=O)[C@@H](NC(=O)OC)[C@@H](C)OC)[nH]5)ccc4c3)nc2[nH]1 [compound 534] | < 1 nM
COC(=O)N[C@H](C(=O)N1CCC[C@H]1c1ncc(-c2ccc3oc(-c4ccc(-c5cnc([C@@H]6CCCN6C(=O)[C@H](NC(=O)OC(C)(C)C)c6ccccc6)[nH]5)cc4)nc3c2)[nH]1)C(C)C [compound 535] | < 1 nM
COC(=O)N[C@H](C(=O)N1CCC[C@H]1c1ncc(-c2ccc(-c3nc4cc(-c5cnc([C@@H]6CCCN6C(=O)[C@H](NC(=O)OC)c6ccccc6)[nH]5)ccc4s3)cc2)[nH]1)C(C)C [compound 536] | < 1 nM
COC(=O)N[C@H](C(=O)N1CCC[C@H]1c1nc2ccc(-c3ccc4cc(-c5ccc6nc([C@@H]7CCCN7C(=O)[C@@H](NC(=O)OC)C(C)C)[nH]c6c5)nnc4c3)cc2[nH]1)C(C)C [compound 537] | < 1 nM
COC(=O)N[C@H](C(=O)N1CCC[C@H]1c1nc2ccc(-c3ccc4cc(-c5ccc6nc([C@@H]7CCCN7C(=O)[C@@H](NC(=O)OC)[C@@H](C)OC)[nH]c6c5)nnc4c3)cc2[nH]1)[C@@H](C)OC [compound 538] | < 1 nM
COC(=O)N[C@H](C(=O)N1CCC[C@H]1c1nc2c([nH]1)-c1ccc(-c3ccc4cc(-c5cnc([C@@H]6CCCN6C(=O)[C@H](NC(=O)OC)c6ccccc6)[nH]5)ccc4n3)cc1CCC2)C(C)C [compound 539] | < 1 nM
COC(=O)N[C@H](C(=O)N1CCC[C@H]1c1nc2c([nH]1)-c1ccc(-c3ccc4cc(-c5cnc([C@@H]6CCCN6C(=O)[C@H](NC(=O)OC6CCOCC6)c6ccccc6)[nH]5)ccc4n3)cc1CCC2)C(C)C [compound 540] | < 1 nM
COC(=O)N[C@H](C(=O)N1CCC[C@H]1C(=O)Nc1ccc(-c2ccc3cc(-c4cnc([C@@H]5CCCN5C(=O)[C@@H](NC(=O)OC)C(C)C)[nH]4)ccc3n2)cc1)C(C)C [compound 541] | 1 to 9.9 nM
COC(=O)N[C@H](C(=O)N1CCC[C@H]1C(=O)Nc1ccc(-c2ccc3cc(-c4cnc([C@@H]5CCCN5C(=O)[C@@H](NC(=O)OC)C5CCOCC5)[nH]4)ccc3n2)cc1)C1CCOCC1 [compound 542] | 1 to 9.9 nM
COC(=O)N[C@@H](C(=O)N1CCC[C@H]1C(=O)Nc1ccc(-c2ccc3cc(-c4cnc([C@@H]5CCCN5C(=O)[C@H](NC(=O)OC)c5ccccc5)[nH]4)ccc3n2)cc1)c1ccccc1 [compound 543] | < 1 nM
COC(=O)N[C@H](C(=O)N1CCC[C@H]1CNC(=O)c1ccc(-c2ccc3cc(-c4cnc([C@@H]5CCCN5C(=O)[C@@H](NC(=O)OC)C(C)C)[nH]4)ccc3n2)cc1)C(C)C [compound 544] | < 1 nM
COC(=O)N[C@@H](C(=O)N1CCC[C@H]1CNC(=O)c1ccc(-c2ccc3cc(-c4cnc([C@@H]5CCCN5C(=O)[C@H](NC(=O)OC)c5ccccc5)[nH]4)ccc3n2)cc1)c1ccccc1 [compound 545] | < 1 nM
COC(=O)N[C@H](C(=O)N1CCC[C@H]1C(=O)NCc1ccc(-c2ccc3cc(-c4cnc([C@@H]5CCCN5C(=O)[C@@H](NC(=O)OC)C(C)C)[nH]4)ccc3n2)cc1)C(C)C [compound 546] | 10 to 999 nM
COC(=O)N[C@@H](C(=O)N1CCC[C@H]1C(=O)NCc1ccc(-c2ccc3cc(-c4cnc([C@@H]5CCCN5C(=O)[C@H](NC(=O)OC)c5ccccc5)[nH]4)ccc3n2)cc1)c1ccccc1 [compound 547] | < 1 nM
COC(=O)N[C@@H](C(=O)N1CCC[C@H]1CNC(=O)c1cnc2cc(-c3ccc4c(c3)CCc3nc([C@@H]5CCCN5C(=O)[C@H](NC(=O)OC)c5ccccc5)[nH]c3-4)ccc2c1)c1ccccc1 [compound 548] | < 1 nM

Compound | EC50
COC(=O)N[C@H](C(=O)N1CCC[C@H]1CNC(=O)c1cnc2cc(-c3ccc4c(c3)CCc3nc([C@@H]5CCCN5C(=O)[C@@H](NC(=O)OC)C(C)C)[nH]c3-4)ccc2c1)C(C)C [compound 549] | 1 to 9.9 nM
COC(=O)N[C@H](C(=O)N1CCC[C@H]1CNC(=O)c1cnc2cc(-c3ccc4c(ccc5nc([C@@H]6CCCN6C(=O)[C@@H](NC(=O)OC)C(C)C)[nH]c54)c3)ccc2c1)C(C)C [compound 550] | 1 to 9.9 nM
COC(=O)N[C@@H](C(=O)N1CCC[C@H]1CNC(=O)c1cnc2cc(-c3ccc4c(ccc5nc([C@@H]6CCCN6C(=O)[C@H](NC(=O)OC)c6ccccc6)[nH]c54)c3)ccc2c1)c1ccccc1 [compound 551] | < 1 nM
COC(=O)N[C@H](C(=O)N1CCC[C@H]1CNC(=O)c1cnc2cc(-c3ccc(-c4cnc([C@@H]5CCCN5C(=O)[C@@H](NC(=O)OC)C(C)C)[nH]4)cc3)ccc2c1)C(C)C [compound 552] | 1 to 9.9 nM
COC(=O)N[C@@H](C(=O)N1CCC[C@H]1CNC(=O)c1cnc2cc(-c3ccc(-c4cnc([C@@H]5CCCN5C(=O)[C@H](NC(=O)OC)c5ccccc5)[nH]4)cc3)ccc2c1)c1ccccc1 [compound 553] | < 1 nM
COC(=O)N[C@H](C(=O)N1CCC[C@H]1CNC(=O)c1cnc2cc(-c3ccc4nc([C@@H]5CCCN5C(=O)[C@@H](NC(=O)OC)C(C)C)[nH]c4c3)ccc2c1)C(C)C [compound 554] | 1 to 9.9 nM
COC(=O)N[C@@H](C)C(=O)N1CCC[C@H]1C(=O)N[C@@H](C)c1ccc(-c2ccc3cc(-c4cnc([C@@H]5CCCN5C(=O)[C@H](C)NC(=O)OC)[nH]4)ccc3c2)cc1 [compound 556] | 10 to 999 nM
COC(=O)N[C@H](C(=O)N1CCC[C@H]1C(=O)N[C@@H](C)c1ccc(-c2ccc3cc(-c4cnc([C@@H]5CCCN5C(=O)[C@@H](NC(=O)OC)C(C)C)[nH]4)ccc3c2)cc1)C(C)C [compound 557] | < 1 nM
COC(=O)N[C@H](C(=O)N1CCC[C@H]1C(=O)N[C@@H](C)c1ccc(-c2ccc3cc(-c4cnc([C@@H]5CCCN5C(=O)[C@@H](NC(=O)OC)[C@@H](C)OC)[nH]4)ccc3c2)cc1)[C@@H](C)OC [compound 558] | < 1 nM
COC(=O)N[C@H](C(=O)N1CCC[C@H]1C(=O)N[C@@H](C)c1ccc(-c2ccc3cc(-c4cnc([C@@H]5CCCN5C(=O)[C@@H](NC(=O)OC)C5CCOCC5)[nH]4)ccc3c2)cc1)C1CCOCC1 [compound 559] | < 1 nM
COC(=O)N[C@@H](C)C(=O)N1CCC[C@H]1C(=O)N[C@H](C)c1ccc(-c2ccc3cc(-c4cnc([C@@H]5CCCN5C(=O)[C@H](C)NC(=O)OC)[nH]4)ccc3c2)cc1 [compound 560] | 10 to 999 nM
COC(=O)N[C@H](C(=O)N1CCC[C@H]1C(=O)N[C@H](C)c1ccc(-c2ccc3cc(-c4cnc([C@@H]5CCCN5C(=O)[C@@H](NC(=O)OC)C(C)C)[nH]4)ccc3c2)cc1)C(C)C [compound 561] | 10 to 999 nM
COC(=O)N[C@H](C(=O)N1CCC[C@H]1C(=O)N[C@H](C)c1ccc(-c2ccc3cc(-c4cnc([C@@H]5CCCN5C(=O)[C@@H](NC(=O)OC)[C@@H](C)OC)[nH]4)ccc3c2)cc1)[C@@H](C)OC [compound 562] | 10 to 999 nM
COC(=O)N[C@H](C(=O)N1CCC[C@H]1C(=O)N[C@H](C)c1ccc(-c2ccc3cc(-c4cnc([C@@H]5CCCN5C(=O)[C@@H](NC(=O)OC)C5CCOCC5)[nH]4)ccc3c2)cc1)C1CCOCC1 [compound 563] | 1 to 9.9 nM
COC(=O)N[C@@H](C)C(=O)N1CCC[C@H]1CNC(=O)c1ccc(-c2ccc3cc(-c4cnc([C@@H]5CCCN5C(=O)[C@H](C)NC(=O)OC)[nH]4)ccc3c2)cc1 [compound 564] | 10 to 999 nM
